Results from patent US20260027118A1, “COMPOSITIONS USEFUL FOR MODULATING SPLICING” (Skyhawk Therapeutics, Inc., priority 2022, published 2026).
pEC50, pIC50: −log10 of the molar value.

Columns and labels:
[1] = test system: ATXN3 transcripts containing exon 4; experiment: ATXN3 Quantitative Splicing Assay (qPCR, E4E5 primers/probe); type: cell-based, Human; conditions: Homo sapiens; SK-N-MC cells, treated with compounds for 24 h, qPCR of transcripts containing exon 4
Protocol: Human neuroblastoma SK-N-MC cells were plated in 384-well plates at 20,000 cells/well. Twenty-four hours after plating, cells were treated with compounds for 24 h at appropriate concentrations ranging from 30.M to 0.6 nM (0.300 DMS0). Treated cells were lysed in 15 μL of lysis buffer, and cDNA was synthesized using the Fast Advanced Cells-to-Ct kit. Two μL of each cDNA was used in qPCR reactions to confirm the exon 4 skipped transcripts of ATXN3. A second set of primers/probe E4E5 was used to detect the transcripts containing exon 4. The third set of primers/probe E8E9 was used to detect total gene level of ATXN3. The qPCR reactions were prepared in 384-well plates in 10 μL volume, using TaqMan™ Fast Advanced Master Mix with primers and probes shown in the table below. Reactions were run in a Quant Studio 6 qPCR instrument with default settings.
The primers and probes are listed below in Table 4.

ATXN3-HiBiT protein = experiment: ATXN3 HiBiT assay (Nano Glo HiBiT luminescence); type: cell-based; conditions: Kelly-ATXN3-HiBiT cells, luminescence read out 48 h after addition of the compound
Source text: To monitor ATXN3 protein levels by luminescence, a Kelly-ATXN3-HiBiT cell line with homozygous knock-in of HiBiT at the C-terminus of the endogenous ATXN3 gene was used (knock-in of the HiBiT-tag coding sequence SEQ ID NO. 14: 5′[…]3′ into exon 11 of ATXN3 -position 1114 of ATXN3 RefSeq NM_004993.6). Manipulations of the Kelly-ATXN3-HiBiT cell line that result in downregulation of the ATXN3-HiBiT protein (through modulation of ATXN3-HiBiT pre-mRNA splicing) can be followed by monitoring the luminescence signal of the HiBiT tag using the Nano Glo HiBiT Lytic Detection System (Promega, #N3050). Kelly-ATXN3-HiBiT cells were maintained in RPMI 1640 w/Glutamax (Gibco, #61870010), 10% FBS (Sigma Aldrich, #F8687), 1% Penicillin/Streptomycin (Gibco, #15140-122) at 37° C., 5% CO2. To assess HiBiT-luminescence signal upon compound treatment, 2000 Kelly-ATXN3-HiBiT cells were seeded per well in 384 plate format. Compounds were added 24 h after seeding. ATXN3-HiBiT-luminescence signal was read out 48 h after addition of the compound using the Nano Glo HiBiT Lytic Detection System (Promega, #N3050) according to the manufacturer's instructions. To control for cell viability, an identically prepared sister plate was read out with the CellTiter-Glo® 2.0 Assay (Promega, #G9243) according to the manufacturer's instructions. Fold changes of ATXN3-HiBiT-luminescence and of CellTiter-Glo viability signals were calculated relative to a DMSO control condition.

total ATXN3 protein = experiment: ATXN3 total protein assay (Mesoscale Discovery); type: cell-based, Human; conditions: SK-N-MC cells, 48 hours incubation, MSD assay
Protocol: Human neuroblastoma SK-N-MC cells were seeded at 10,000 cells/well in 384 well plates one day prior to compound treatment. The concentrations of compounds were tested at appropriate doses ranging from 30 μM to 0.6 nM. After incubation for 48 hours, the cells were lysed with 25 μL of lysis buffer containing protease inhibitors, and total ATXN3 protein levels were assessed by Mesoscale Discovery (MSD) assay developed with one pair of anti-ATXN3 antibodies. The capture and detect antibodies were raised in mouse and rabbit respectively. Anti-rabbit MSD-ST antibody was used for secondary antibody. ATXN3 recombinant protein was used for standards. The readouts were captured with 35 μL of MSD read buffer and multi-array 384-well high binding plates.

Row | pIC50 [1] | pEC50 (ATXN3-HiBiT protein) | pIC50 (total ATXN3 protein) | SMILES
1 | 7.00 to 11.00 | 7.00 to 11.00 | 6.30 to 7.00 | CC#Cc1c(C[C@@H](N)[C@H](C)F)oc2c(NCc3ccccc3)cc(Cl)nc12 [Compound 11, 2-[(2R,3S)-2-amino-3-fluorobutyl]-7-benzylamino-5-chloro-3-(1-propynyl)-1-oxa-4-azaindene]
2 | 7.00 to 11.00 | 7.00 to 11.00 | 6.30 to 7.00 | CC#Cc1c(C[C@@H](N)[C@H](C)F)oc2c(NCc3nccs3)cc(Cl)nc12 [Compound 12, 2-[(2R,3S)-2-amino-3-fluorobutyl]-5-chloro-3-(1-propynyl)-7-{[(1,3-thiazol-2-yl)methyl]amino}-1-oxa-4-azaindene]
3 | 5.30 to 6.30 | 5.30 to 6.30 | 5.30 to 6.30 | CC#Cc1c(C[C@@H](N)C2CC(F)(F)C2)oc2c(NCc3cccs3)cc(Cl)nc12 [Compound 15, 2-[(R)-2-amino-2-(3,3-difluorocyclobutyl)ethyl]-5-chloro-3-(1-propynyl)-7-thenylamino-1-oxa-4-azaindene]
4 | 7.00 to 11.00 | 7.00 to 11.00 | 6.30 to 7.00 | CC#Cc1c(C[C@@H](N)COC)oc2c(NCc3cccs3)cc(Cl)nc12 [Compound 21, 2-[(R)-2-amino-3-methoxypropyl]-5-chloro-3-(1-propynyl)-7-thenylamino-1-oxa-4-azaindene]
5 | 5.00 to 5.30 | 5.30 to 6.30 | 4.40 to 5.00 | CC#Cc1cc(NCc2cccs2)c2oc(C[C@@H](N)C3CC(F)(F)C3)c(C#CC)c2n1 [Compound 23, 2-[(R)-2-amino-2-(3,3-difluorocyclobutyl)ethyl]-3,5-bis(1-propynyl)-7-thenylamino-1-oxa-4-azaindene]
6 | 5.30 to 6.30 | 5.30 to 6.30 | 5.30 to 6.30 | CC#Cc1c(C[C@@H](N)C2CC2)oc2c(NCc3cccs3)cc(Cl)nc12 [Compound 24, 2-[(R)-2-amino-2-cyclopropylethyl]-5-chloro-3-(1-propynyl)-7-thenylamino-1-oxa-4-azaindene]
7 | 4.40 to 5.00 | 5.00 to 5.30 | 4.40 to 5.00 | CC#Cc1cc(NCc2cccs2)c2oc(C[C@@H](N)C3CC3)c(C#CC)c2n1 [Compound 25, 2-[(R)-2-amino-2-cyclopropylethyl]-3,5-bis(1-propynyl)-7-thenylamino-1-oxa-4-azaindene]
8 | 6.30 to 7.00 | 6.30 to 7.00 | 5.30 to 6.30 | CC#Cc1c(C(F)(F)[C@H](C)N)oc2c(NCc3cccs3)nc(Cl)nc12 [Compound 33, 2-[(S)-2-amino-1,1-difluoropropyl]-5-chloro-3-(1-propynyl)-7-thenylamino-1-oxa-4,6-diazaindene]
9 | 6.30 to 7.00 | 6.30 to 7.00 | 6.30 to 7.00 | CC#Cc1c(C[C@@H](N)COC)oc2c(NCc3nccs3)cc(Cl)nc12 [Compound 38, 2-[(R)-2-amino-3-methoxypropyl]-5-chloro-3-(1-propynyl)-7-{[(1,3-thiazol-2-yl)methyl]amino}-1-oxa-4-azaindene]
10 | 6.30 to 7.00 | 7.00 to 11.00 | 7.00 to 11.00 | CC#Cc1c(C[C@@H](N)COC)oc2c(NCc3ccco3)cc(Cl)nc12 [Compound 39, 2-[(R)-2-amino-3-methoxypropyl]-5-chloro-7-(furfurylamino)-3-(1-propynyl)-1-oxa-4-azaindene]
11 | 7.00 to 11.00 | 7.00 to 11.00 | 7.00 to 11.00 | CC#Cc1c(C[C@@H](N)[C@H](C)F)oc2c(NCc3ccco3)nc(Cl)nc12 [Compound 41, 2-[(2R,3S)-2-amino-3-fluorobutyl]-5-chloro-7-(furfurylamino)-3-(1-propynyl)-1-oxa-4,6-diazaindene]
12 | 7.00 to 11.00 | 7.00 to 11.00 | 6.30 to 7.00 | [2H]C([2H])(OC)[C@H](N)Cc1oc2c(NCc3cccs3)cc(Cl)nc2c1C#CC [Compound 46, 2-[(R)-2-amino-3-methoxy(3,3- ^2H2)propyl]-5-chloro-3-(1-propynyl)-7-thenylamino-1-oxa-4-azaindene]

Row | SMILES | pIC50 [1] | pEC50 (ATXN3-HiBiT protein) | pIC50 (total ATXN3 protein)
13 | C[C@H](N)Cc1oc2c(NCc3ccco3)cc(Cl)nc2c1C#CC1CC1 [Compound 9, 2-[(S)-2-aminopropyl]-5-chloro-3-(2-cyclopropylethynyl)-7-(furfurylamino)-1-oxa-4-azaindene] | 5.30 to 6.30 | 5.30 to 6.30 | 5.30 to 6.30
14 | C[C@H](N)Cc1oc2c(NCc3cccs3)cc(Cl)nc2c1C#CC1CC1 [Compound 10, 2-[(S)-2-aminopropyl]-5-chloro-3-(2-cyclopropylethynyl)-7-thenylamino-1-oxa-4-azaindene] | 5.30 to 6.30 | 5.30 to 6.30 | 5.30 to 6.30
15 | CCC#Cc1c(C[C@H](C)N)oc2c(NCc3cccs3)cc(Cl)nc12 [Compound 16, 2-[(S)-2-aminopropyl]-3-(1-butynyl)-5-chloro-7-thenylamino-1-oxa-4-azaindene] | 6.30 to 7.00 | 6.30 to 7.00 | 6.30 to 7.00
16 | C[C@H](N)Cc1oc2c(NCc3cccs3)cc(Cl)nc2c1C#CCF [Compound 19, 2-[(S)-2-aminopropyl]-5-chloro-3-(3-fluoro-1-propynyl)-7-thenylamino-1-oxa-4-azaindene] | 6.30 to 7.00 | 6.30 to 7.00 | 6.30 to 7.00
17 | CCC#Cc1c(C[C@H](C)N)oc2c(NCc3ccco3)cc(Cl)nc12 [Compound 22, 2-[(S)-2-aminopropyl]-3-(1-butynyl)-5-chloro-7-(furfurylamino)-1-oxa-4-azaindene] | 6.30 to 7.00 | 5.30 to 6.30 | 5.30 to 6.30
18 | C[C@H](N)Cc1oc2c(NCc3cccs3)cc(Cl)nc2c1C#CCO [Compound 26, 3-{2-[(S)-2-aminopropyl]-5-chloro-7-thenylamino-1-oxa-4-aza-3-indenyl}-2-propyn-1-ol] | 6.30 to 7.00 | 6.30 to 7.00 | 5.30 to 6.30
19 | C[C@H](N)Cc1oc2c(NCc3ccco3)cc(Cl)nc2c1C#CCO [Compound 27, 3-{2-[(S)-2-aminopropyl]-5-chloro-7-(furfurylamino)-1-oxa-4-aza-3-indenyl}-2-propyn-1-ol] | 5.30 to 6.30 | 5.30 to 6.30 | 5.30 to 6.30
20 | CC#Cc1cc(NCc2cccs2)c2oc(C[C@H](C)N)c(C#CC)c2n1 [Compound 28, 2-[(2S)-2-aminopropyl]-3,5-bis(prop-1-yn-1-yl)-N-(thiophen-2-ylmethyl)furo[3,2-b]pyridin-7-amine] | 5.30 to 6.30 | 5.30 to 6.30 | 5.30 to 6.30
21 | CC#Cc1c(C[C@H](C)N)oc2c(NCc3cccs3)c(F)c(Cl)nc12 [Compound 36] | 5.30 to 6.30 | 5.30 to 6.30 | 5.30 to 6.30
